From patent EP0192327A2, “Use of phosphonoformic acid and its esters and salts for the manufacture of a medicament for the treatment of AIDS” (THE WELLCOME FOUNDATION LIMITED, priority 1985, dated 1986)

Legend:
[1] = Toxicity: cytotoxicity in FE-10 cells; assay type: cell-based; conditions: FE-10 (mouse modified 3T3) cells, no cytotoxicity up to 100µM, read-out: concentrations at which no cytotoxicity was observed
HTLV-III = assay: Antiviral activity: protection of target T cells against the cytopathic effects of HTLV-III; assay type: cell-based; conditions: Human immunodeficiency virus 1, T-cell; target T cells infected with HTLV-III; protection at 10µM and above; read-out: concentrations found to protect target T cells against the cytopathic effects of HTLV-III
Protocol: The compound of formula (1) in which R^1, R^2 and R^3 each represent a hydrogen atom was tested and found to protect target T cells against the cytopathic effects of HTLV-III at concentrations of 10µM and above.

In the case of O=C(O)P(=O)(O)O [phosphonoformic acid], the MNTC [1] is reported as ≥ 100 µM and the minimal effective concentration (HTLV-III) is reported as ≥ 10 µM.
